Assay results from ChEMBL document CHEMBL1124870, “2-(4-Amino-4-carboxybutyl)aziridine-2-carboxylic acid. A potent irreversible inhibitor of diaminopimelic acid epimerase. Spontaneous formation from alpha-(halomethyl)diaminopimelic acids” (J Med Chem, 1990).

Tests used:
[1] = Rate of formation of aziridine under physiological conditions; assay type: ADME
[2] = Dissociation constant value of the compound; assay type: physicochemical; settings: read-out: Ki/ki
[3] = test system: Escherichia coli; test: Concentration at which first-order inactivation was observed by the inhibition of Diaminopimelate epimerase

SMILES | k0 [1] [min⁻¹] | kik0/Ki [1] | Kd [2] [µM] | Concentration [3] [µM]
NC(CCCC(N)(CF)C(=O)O)C(=O)O (stereo unspecified) | 0.000079 | 0.0000145 uM-1 min**-2 | – | –
NC(CCCC(N)(CCl)C(=O)O)C(=O)O (stereo unspecified) | 0.011 | 0.002 µM-1 min··-2 | – | –
NC(CCCC1(C(=O)O)CN1)C(=O)O (stereo unspecified) | – | – | 5.5 | 2
